Data published in EP4745137A1 (Gluetacs Therapeutics (Shanghai) Co., Ltd., priority 2023, dated 2025).
Like-named read-outs stand apart in the source and are kept apart here.

Key:
[1] = target: T1, IKZF1 (Homo sapiens, UniProt Q13422+Q96SW2); experiment: Western-blot assay of substrate protein degradation in hPBMCs, IKZF1; assay type: cell-based; details: 24 hours of compound treatment, compounds tested at 50 nM and 500 nM (concentration of the table not stated)
T1 construct: endogenous in cells; host or cells: hPBMCs (Milecell Biotechnologies)
T1 sequence (Q13422 whole entry): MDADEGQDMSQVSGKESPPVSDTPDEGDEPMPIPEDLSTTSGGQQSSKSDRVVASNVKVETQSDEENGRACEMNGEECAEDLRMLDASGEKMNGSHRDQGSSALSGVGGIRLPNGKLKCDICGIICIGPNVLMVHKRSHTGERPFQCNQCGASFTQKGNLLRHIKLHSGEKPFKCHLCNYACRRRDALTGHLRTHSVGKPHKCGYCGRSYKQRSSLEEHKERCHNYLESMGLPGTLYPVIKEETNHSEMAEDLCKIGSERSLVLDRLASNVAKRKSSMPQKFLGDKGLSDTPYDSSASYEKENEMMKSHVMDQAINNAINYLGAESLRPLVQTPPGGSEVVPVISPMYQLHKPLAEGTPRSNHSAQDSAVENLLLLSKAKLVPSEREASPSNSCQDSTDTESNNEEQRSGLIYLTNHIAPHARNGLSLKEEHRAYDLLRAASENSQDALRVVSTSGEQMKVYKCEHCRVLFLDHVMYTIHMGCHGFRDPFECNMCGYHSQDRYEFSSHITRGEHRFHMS
T1 sequence (Q96SW2 whole entry): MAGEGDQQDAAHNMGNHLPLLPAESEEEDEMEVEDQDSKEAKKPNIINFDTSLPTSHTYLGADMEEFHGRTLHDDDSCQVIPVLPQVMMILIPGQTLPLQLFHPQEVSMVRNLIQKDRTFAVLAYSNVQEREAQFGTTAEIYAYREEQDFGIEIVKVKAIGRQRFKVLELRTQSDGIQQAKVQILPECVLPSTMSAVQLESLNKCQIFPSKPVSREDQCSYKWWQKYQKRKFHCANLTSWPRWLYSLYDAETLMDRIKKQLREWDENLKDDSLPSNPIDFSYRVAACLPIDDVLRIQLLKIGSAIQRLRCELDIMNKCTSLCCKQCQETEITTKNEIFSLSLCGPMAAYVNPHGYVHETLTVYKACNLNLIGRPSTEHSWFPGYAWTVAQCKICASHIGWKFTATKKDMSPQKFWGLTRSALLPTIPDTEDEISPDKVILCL
T1 sequence (Q16531 whole entry partner): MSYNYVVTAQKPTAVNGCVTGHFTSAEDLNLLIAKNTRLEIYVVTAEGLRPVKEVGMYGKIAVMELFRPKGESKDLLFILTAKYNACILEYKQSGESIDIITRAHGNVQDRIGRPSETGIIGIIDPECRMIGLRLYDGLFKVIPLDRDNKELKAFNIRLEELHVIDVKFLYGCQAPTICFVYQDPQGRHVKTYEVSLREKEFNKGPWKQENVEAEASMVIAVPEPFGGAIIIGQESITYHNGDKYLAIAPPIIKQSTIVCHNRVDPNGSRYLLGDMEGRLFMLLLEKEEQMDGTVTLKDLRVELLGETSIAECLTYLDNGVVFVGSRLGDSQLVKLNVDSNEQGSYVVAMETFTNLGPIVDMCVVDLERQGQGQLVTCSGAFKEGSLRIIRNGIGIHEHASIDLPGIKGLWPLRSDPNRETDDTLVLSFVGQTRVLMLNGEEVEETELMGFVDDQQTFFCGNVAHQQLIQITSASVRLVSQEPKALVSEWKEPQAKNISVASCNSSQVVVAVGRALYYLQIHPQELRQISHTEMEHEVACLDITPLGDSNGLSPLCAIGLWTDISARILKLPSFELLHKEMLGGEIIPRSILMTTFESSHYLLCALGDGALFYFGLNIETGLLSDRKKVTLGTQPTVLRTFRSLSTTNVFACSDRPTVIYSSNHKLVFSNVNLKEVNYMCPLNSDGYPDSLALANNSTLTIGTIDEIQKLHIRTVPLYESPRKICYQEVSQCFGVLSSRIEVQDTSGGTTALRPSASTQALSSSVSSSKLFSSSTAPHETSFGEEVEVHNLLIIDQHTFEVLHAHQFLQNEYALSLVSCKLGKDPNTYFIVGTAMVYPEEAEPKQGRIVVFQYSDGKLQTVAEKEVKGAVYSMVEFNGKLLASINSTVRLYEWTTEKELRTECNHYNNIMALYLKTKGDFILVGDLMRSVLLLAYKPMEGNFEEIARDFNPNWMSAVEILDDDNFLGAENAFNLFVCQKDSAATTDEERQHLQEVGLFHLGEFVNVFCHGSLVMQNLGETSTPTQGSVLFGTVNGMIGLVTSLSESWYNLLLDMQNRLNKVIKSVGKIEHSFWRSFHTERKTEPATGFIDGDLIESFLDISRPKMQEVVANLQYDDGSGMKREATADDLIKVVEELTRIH

[2] = target: T2, GSPT1 (Homo sapiens, UniProt P15170+Q96SW2); experiment: Western-blot assay of substrate protein degradation in hPBMCs, GSPT1; assay type: cell-based; details: 24 hours of compound treatment, compounds tested at 50 nM and 500 nM (concentration of the table not stated)
T2 construct: endogenous in cells; host or cells: hPBMCs (Milecell Biotechnologies)
T2 sequence (P15170 whole entry): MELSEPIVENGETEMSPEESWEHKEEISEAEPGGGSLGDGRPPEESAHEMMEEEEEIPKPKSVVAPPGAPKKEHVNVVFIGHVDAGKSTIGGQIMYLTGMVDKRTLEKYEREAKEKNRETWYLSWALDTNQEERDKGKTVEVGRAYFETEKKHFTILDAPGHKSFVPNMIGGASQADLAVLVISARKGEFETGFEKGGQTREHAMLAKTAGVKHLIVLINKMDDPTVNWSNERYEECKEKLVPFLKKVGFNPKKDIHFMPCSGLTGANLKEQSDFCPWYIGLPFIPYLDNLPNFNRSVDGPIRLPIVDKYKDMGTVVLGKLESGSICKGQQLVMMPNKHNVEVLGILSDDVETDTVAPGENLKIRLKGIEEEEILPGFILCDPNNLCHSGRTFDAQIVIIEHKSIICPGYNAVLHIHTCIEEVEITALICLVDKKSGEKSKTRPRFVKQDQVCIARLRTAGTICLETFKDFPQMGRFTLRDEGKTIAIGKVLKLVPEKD
T2 sequence (Q96SW2 whole entry): as the sequence (Q96SW2 whole entry) above
T2 sequence (Q16531 whole entry partner): as the sequence (Q16531 whole entry partner) above

[3] = target: T3, CK1α (Homo sapiens, UniProt P48729+Q96SW2); experiment: Western-blot assay of substrate protein degradation in hPBMCs, CK1α; assay type: cell-based; details: 24 hours of compound treatment, compounds tested at 50 nM and 500 nM (concentration of the table not stated)
T3 construct: endogenous in cells; host or cells: hPBMCs (Milecell Biotechnologies)
T3 sequence (P48729 whole entry): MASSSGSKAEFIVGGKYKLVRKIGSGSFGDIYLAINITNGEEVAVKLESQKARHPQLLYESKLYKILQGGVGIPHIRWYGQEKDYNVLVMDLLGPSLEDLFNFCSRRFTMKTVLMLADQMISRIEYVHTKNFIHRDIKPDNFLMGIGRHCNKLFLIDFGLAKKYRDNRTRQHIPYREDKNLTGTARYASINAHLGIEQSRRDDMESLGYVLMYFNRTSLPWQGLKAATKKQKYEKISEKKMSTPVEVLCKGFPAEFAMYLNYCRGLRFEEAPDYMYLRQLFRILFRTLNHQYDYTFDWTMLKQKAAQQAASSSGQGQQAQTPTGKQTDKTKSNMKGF
T3 sequence (Q96SW2 whole entry): as the sequence (Q96SW2 whole entry) above
T3 sequence (Q16531 whole entry partner): as the sequence (Q16531 whole entry partner) above

[4] = target: T4, IKZF2 (Homo sapiens, UniProt Q96SW2+Q9UKS7); experiment: Western-blot assay of substrate protein degradation in hPBMCs, IKZF2; assay type: cell-based; details: 24 hours of compound treatment, compounds tested at 50 nM and 500 nM (concentration of the table not stated)
T4 construct: endogenous in cells; host or cells: hPBMCs (Milecell Biotechnologies)
T4 sequence (Q9UKS7 whole entry): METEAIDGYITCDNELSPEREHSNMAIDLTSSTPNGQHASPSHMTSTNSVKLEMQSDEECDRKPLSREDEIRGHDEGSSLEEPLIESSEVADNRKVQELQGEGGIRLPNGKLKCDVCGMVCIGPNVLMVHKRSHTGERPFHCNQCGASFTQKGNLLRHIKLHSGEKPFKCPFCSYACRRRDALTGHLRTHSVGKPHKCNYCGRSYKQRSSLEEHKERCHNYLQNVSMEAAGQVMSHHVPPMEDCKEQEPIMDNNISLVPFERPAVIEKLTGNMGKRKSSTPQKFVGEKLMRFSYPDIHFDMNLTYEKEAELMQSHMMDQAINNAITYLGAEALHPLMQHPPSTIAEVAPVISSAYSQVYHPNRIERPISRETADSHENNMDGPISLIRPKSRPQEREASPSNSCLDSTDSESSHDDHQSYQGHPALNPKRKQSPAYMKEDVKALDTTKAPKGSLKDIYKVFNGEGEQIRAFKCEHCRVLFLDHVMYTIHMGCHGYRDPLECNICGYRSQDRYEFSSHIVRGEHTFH
T4 sequence (Q96SW2 whole entry): as the sequence (Q96SW2 whole entry) above
T4 sequence (Q16531 whole entry partner): as the sequence (Q16531 whole entry partner) above

[5] = target: T5, IKZF3 (Homo sapiens, UniProt Q96SW2+Q9UKT9); experiment: Western-blot assay of substrate protein degradation in hPBMCs, IKZF3; assay type: cell-based; details: 24 hours of compound treatment, compounds tested at 50 nM and 500 nM (concentration of the table not stated)
T5 construct: endogenous in cells; host or cells: hPBMCs (Milecell Biotechnologies)
T5 sequence (Q9UKT9 whole entry): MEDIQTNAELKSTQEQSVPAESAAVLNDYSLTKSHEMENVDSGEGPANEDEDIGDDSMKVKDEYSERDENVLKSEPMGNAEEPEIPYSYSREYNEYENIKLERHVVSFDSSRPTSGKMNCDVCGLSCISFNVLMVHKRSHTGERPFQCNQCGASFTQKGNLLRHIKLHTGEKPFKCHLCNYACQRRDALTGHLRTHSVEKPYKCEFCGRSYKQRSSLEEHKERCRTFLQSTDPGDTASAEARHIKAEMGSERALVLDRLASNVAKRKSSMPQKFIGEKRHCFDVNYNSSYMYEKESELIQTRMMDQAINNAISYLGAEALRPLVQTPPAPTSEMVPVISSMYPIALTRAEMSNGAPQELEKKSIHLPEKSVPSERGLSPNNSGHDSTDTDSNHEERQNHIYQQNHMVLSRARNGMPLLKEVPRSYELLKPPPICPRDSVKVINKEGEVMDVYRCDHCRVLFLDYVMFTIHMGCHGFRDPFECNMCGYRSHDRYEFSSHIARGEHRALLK
T5 sequence (Q96SW2 whole entry): as the sequence (Q96SW2 whole entry) above
T5 sequence (Q16531 whole entry partner): as the sequence (Q16531 whole entry partner) above

[6] = target: T6, human Cereblon WT GST-tagged protein (Homo sapiens, UniProt Q96SW2); experiment: CRBN-binding affinity by HTRF (CEREBLON BINDING kit)
T6 construct: purchased CISBIO 64BDCRBNPEH
T6 sequence (Q96SW2 whole entry): as the sequence (Q96SW2 whole entry) above

[7] = target: T7, WEE1 (Homo sapiens, UniProt P30291+Q96SW2); experiment: Western-blot assay of substrate protein degradation in hPBMCs, WEE1; assay type: cell-based; details: 24 hours of compound treatment, compounds tested at 50 nM and 500 nM (concentration of the table not stated)
T7 construct: endogenous in cells; host or cells: hPBMCs (Milecell Biotechnologies)

[8] = HTRF inhibitory activity, CEREBLON BINDING kit, read-out: HTRF IC50

Compound | IKZF 1 substrate protein remaining % [1] | GSPT1 substrate protein remaining % [2] | CK1a substrate protein remaining % [3] | IKZF2 substrate protein remaining % [4] | IKZF3 substrate protein remaining % [5] | IC50 [6, 8] | Weel substrate protein remaining % [7] | IC50 [6]
Cc1cc2c(C3CCN(Cc4ccc5c(c4)CN(C4CCC(=O)NC4=O)C5=O)CC3)ncnc2s1 (stereo not drawn) [GT-04717, 3-(5-((4-(6-methylthieno[2,3-d]pyrimidin-4-yl)piperidin-1-yl)methyl)-1-oxoisoindolin-2-yl)piperidine-2,6-dione] | B (80%< substrate protein remaining %≤ 100%) | A (0% ≤ substrate protein remaining % ≤ 80%) | B (80%< substrate protein remaining %≤ 100%) | A (0% ≤ substrate protein remaining % ≤ 80%) | A (0% ≤ substrate protein remaining % ≤ 80%) | 500 to 1000 nM | B (80%< substrate protein remaining %≤ 100%) | 
O=C1CCC(N2Cc3cc(CN4CCN(c5ncc6ccsc6n5)CC4)ccc3C2=O)C(=O)N1 (stereo not drawn) [GT-04725, 3-(1-oxo-5-((4-(thieno[2,3-d]pyrimidin-2-yl)piperazin-1-yl)methyl)isoindolin-2-yl)piperidine-2,6-dione] | B (80%< substrate protein remaining %≤ 100%) | A (0% ≤ substrate protein remaining % ≤ 80%) | B (80%< substrate protein remaining %≤ 100%) | B (80%< substrate protein remaining %≤ 100%) | B (80%< substrate protein remaining %≤ 100%) | < 500 nM | B (80%< substrate protein remaining %≤ 100%) | 
Cc1ccsc1C1=CCN(Cc2cccc3c2CN(C2CCC(=O)NC2=O)C3=O)CC1 (stereo not drawn) [GT-04728, 3-(4-((4-(3-methylthiophen-2-yl)-3,6-dihydropyridin-1(2H)-yl)methyl)-1-oxoisoindolin-2-yl)piperidine-2,6-dione] | B (80%< substrate protein remaining %≤ 100%) | A (0% ≤ substrate protein remaining % ≤ 80%) | B (80%< substrate protein remaining %≤ 100%) | B (80%< substrate protein remaining %≤ 100%) | B (80%< substrate protein remaining %≤ 100%) | 1000 to 1500 nM | B (80%< substrate protein remaining %≤ 100%) | 
O=C1CCC(N2Cc3cc(CN4CCC(N5C(=O)COc6cc(F)ccc65)CC4)ccc3C2=O)C(=O)N1 (stereo not drawn) [GT-04860, 3-(5-((4-(7-fluoro-3-oxo-2,3-dihydro-4H-benzo[b][1,4]oxazin-4-yl)piperidin-1-yl)methyl)-1-oxoisoindolin-2-yl)piperidine-2,6-dione] | A (0% ≤ substrate protein remaining % ≤ 80%) | A (0% ≤ substrate protein remaining % ≤ 80%) | B (80%< substrate protein remaining %≤ 100%) | A (0% ≤ substrate protein remaining % ≤ 80%) | A (0% ≤ substrate protein remaining % ≤ 80%) |  | B (80%< substrate protein remaining %≤ 100%) | < 500 nM
O=C1CCC(N2Cc3cc(CN4CCN(c5ncnc6sc(Br)cc56)CC4)ccc3C2=O)C(=O)N1 (stereo not drawn) [GT-04861, 3-(5-((4-(6-bromothieno[2,3-d]pyrimidin-4-yl)piperazin-1-yl)methyl)-1-oxoisoindolin-2-yl)piperidine-2,6-dione] | A (0% ≤ substrate protein remaining % ≤ 80%) | A (0% ≤ substrate protein remaining % ≤ 80%) | A (0% ≤ substrate protein remaining % ≤ 80%) | A (0% ≤ substrate protein remaining % ≤ 80%) | A (0% ≤ substrate protein remaining % ≤ 80%) | < 500 nM | A (0% ≤ substrate protein remaining % ≤ 80%) | 
O=C1CCC(N2Cc3cc(CN4CCN(c5ncnc6sc(-c7ccccc7)cc56)CC4)ccc3C2=O)C(=O)N1 (stereo not drawn) [GT-04862, 3-(1-oxo-5-((4-(6-phenylthieno[2,3-d]pyrimidin-4-yl)piperazin-1-yl)methyl)isoindolin-2-yl)piperidine-2,6-dione] | A (0% ≤ substrate protein remaining % ≤ 80%) | A (0% ≤ substrate protein remaining % ≤ 80%) | A (0% ≤ substrate protein remaining % ≤ 80%) | A (0% ≤ substrate protein remaining % ≤ 80%) | A (0% ≤ substrate protein remaining % ≤ 80%) | < 500 nM | A (0% ≤ substrate protein remaining % ≤ 80%) | 
O=C1CCC(N2Cc3cc(CN4CC5CC(C4)N5c4cccc(Cl)c4Cl)ccc3C2=O)C(=O)N1 (stereo not drawn) [GT-04897, 3-(5-((6-(2,3-dichlorophenyl)-3,6-diazabicyclo[3.1.1]heptan-3-yl)methyl)-1-oxoisoindolin-2-yl)piperidine-2,6-dione] | B (80%< substrate protein remaining %≤ 100%) | A (0% ≤ substrate protein remaining % ≤ 80%) | B (80%< substrate protein remaining %≤ 100%) | B (80%< substrate protein remaining %≤ 100%) | B (80%< substrate protein remaining %≤ 100%) | 1500 to 1900 nM | B (80%< substrate protein remaining %≤ 100%) | 
O=C1CCC(N2Cc3cc(CN4CC5CCC(C4)N5c4cccc(Cl)c4Cl)ccc3C2=O)C(=O)N1 (stereo not drawn) [GT-04899, 3-(5-((8-(2,3-dichlorophenyl)-3,8-diazabicyclo[3.2.1]octan-3-yl)methyl)-1-oxoisoindolin-2-yl)piperidine-2,6-dione] | A (0% ≤ substrate protein remaining % ≤ 80%) | B (80%< substrate protein remaining %≤ 100%) | B (80%< substrate protein remaining %≤ 100%) | B (80%< substrate protein remaining %≤ 100%) | B (80%< substrate protein remaining %≤ 100%) | 500 to 1000 nM | B (80%< substrate protein remaining %≤ 100%) | 
O=C1CCC(N2Cc3cc(CN4CCN(c5noc6ccncc56)CC4)ccc3C2=O)C(=O)N1 (stereo not drawn) [GT-04904, 3-(5-((4-(isoxazolo[4,5-c]pyridin-3-yl)piperazin-1-yl)methyl)-1-oxoisoindolin-2-yl)piperidine-2,6-dione] | A (0% ≤ substrate protein remaining % ≤ 80%) | B (80%< substrate protein remaining %≤ 100%) | B (80%< substrate protein remaining %≤ 100%) | B (80%< substrate protein remaining %≤ 100%) | B (80%< substrate protein remaining %≤ 100%) | < 500 nM | B (80%< substrate protein remaining %≤ 100%) | 
